Data as given in US9796719B2, “Compounds and pharmaceutical compositions thereof for the treatment of inflammatory disorders” (GALAPAGOS NV, priority 2013, dated 2017).

Each compound was assayed against hENPP2 (UniProtKB/SwissProt Sequence ref Q13822) (Homo sapiens (Human), UniProt Q13822) (assay: LPC hENPP2 assay (choline release, LPC as substrate)).
Format: biochemical
Method in brief: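 Detection is coupled: choline oxidase produces peroxide, which HRP uses to form quinoneimine dye from TOOS and 4-aminoantipyrine, read at 555 nm. The reaction is stopped with 20 mM EGTA in the developer mix, then incubated 30 min at room temperature; inhibition lowers signal.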

Row | SMILES | IC50
1 | CCc1nc2ccc(N3CC[C@H](NCC(=O)N4CC(O)C4)C3)nn2c1N(C)c1nc(-c2ccc(F)cc2)c(C#N)s1 [Cpd 174, (S)-2-((2-ethyl-6-(3-(2-(3-hydroxyazetidin-1-yl)-2-oxoethylamino)pyrrolidin-1-yl)imidazo[1,2-b]pyridazin-3-yl)(methyl)amino)-4-(4-fluorophenyl) thiazole-5-carbonitrile] | 0.01 to 100 nM
2 | CCc1nc2ccc(N3CC[C@H](NCC(=O)N(C)C)C3)nn2c1N(C)c1nc(-c2ccc(F)cc2)c(C#N)s1 [Cpd 175, (S)-2-(1-(3-((5-cyano-4-(4-fluorophenyl)thiazol-2-yl)(methyl)amino)-2-ethylimidazo[1,2-b]pyridazin-6-yl)pyrrolidin-3-ylamino)-N,N-dimethylacetamide] | 0.01 to 100 nM
3 | CCc1nc2ccc(N3CC[C@@H](NCC(=O)N4CC(O)C4)C3)nn2c1N(C)c1nc(-c2ccc(F)cc2)c(C#N)s1 [Cpd 176, (R)-2-((2-ethyl-6-(3-(2-(3-hydroxyazetidin-1-yl)-2-oxoethylamino)pyrrolidin-1-yl)imidazo[1,2-b]pyridazin-3-yl)(methyl)amino)-4-(4-fluorophenyl) thiazole-5-carbonitrile] | 0.01 to 100 nM
4 | CCc1nc2ccc(N3CC[C@@H](NCC(=O)N(C)C)C3)nn2c1N(C)c1nc(-c2ccc(F)cc2)c(C#N)s1 [Cpd 177, (R)-2-(1(3-((5-cyano-4-(4-fluorophenyl)thiazol-2-yl)(methyl)amino)-2-ethylimidazo[1,2-b]pyridazin-6-yl)pyrrolidin-3-ylamino)-N,N-dimethylacetamide] | 0.01 to 100 nM
5 | CCc1nc2ccc(N3CCC(N4CCC(CO)CC4)C3)nn2c1N(C)c1nc(-c2ccc(F)cc2)c(C#N)s1 (centres unmarked) [Cpd 179, 2-((2-ethyl-6-(3-(4-(hydroxymethyl)piperidin-1-yl)pyrrolidin-1-yl)imidazo[1,2-b]pyridazin-3-yl)(methyl)amino)-4-(4-fluorophenyl) thiazole-5-carbonitrile] | 0.01 to 100 nM
6 | CCc1nc2ccc(N3CCC(N4CCN(C(C)=O)CC4)C3)nn2c1N(C)c1nc(-c2ccc(F)cc2)c(C#N)s1 (centres unmarked) [Cpd 180, 2-((6-(3-(4-acetoylpiperazin-1-yl)pyrrolidin-1-yl)-2-ethylimidazo[1,2-b]pyridazin-3-yl)(methyl)amino)-4-(4-fluorophenyl) thiazole-5-carbonitrile] | 0.01 to 100 nM
7 | CCc1nc2ccc(N3CCC(N4CCC(N(C)C(C)=O)CC4)C3)nn2c1N(C)c1nc(-c2ccc(F)cc2)c(C#N)s1 (centres unmarked) [Cpd 181, N-(1-(1-(3-((5-cyano-4-(4-fluorophenyl)thiazol-2-yl)(methyl)amino)-2-ethylimidazo[1,2-b]pyridazin-6-yl)pyrrolidin-3-yl)piperidin-4-yl)-N-methylacetamide] | 0.01 to 100 nM
8 | CCc1nc2ccc(N3CCC(N4CCC(O)CC4)C3)nn2c1N(C)c1nc(-c2ccc(F)cc2)c(C#N)s1 (centres unmarked) [Cpd 182, 2-((2-ethyl-6-(3-(4-hydroxypiperidin-1-yl)pyrrolidin-1-yl)imidazo[1,2-b]pyridazin-3-yl)(methyl)amino)-4-(4-fluorophenyl) thiazole-5-carbonitrile] | 0.01 to 100 nM
9 | CCc1nc2ccc(N3CCC(N4CCC(OC)CC4)C3)nn2c1N(C)c1nc(-c2ccc(F)cc2)c(C#N)s1 (centres unmarked) [Cpd 183, 2-((2-ethyl-6-(3-(4-methoxypiperidin-1-yl)pyrrolidin-1-yl)imidazo[1,2-b]pyridazin-3-yl)(methyl)amino)-4-(4-fluorophenyl) thiazole-5-carbonitrilc] | 0.01 to 100 nM
10 | CCc1nc2ccc(N3C[C@H](O)[C@@H](N4CCOCC4)C3)nn2c1N(C)c1nc(-c2ccc(F)cc2)c(C#N)s1 [Cpd 184] | 0.01 to 100 nM
11 | CCc1nc2ccc(N3CCC(O)C3)nn2c1N(C)c1nc(-c2ccc(F)cc2)c(CO)s1 (centres unmarked) [Cpd 185, 1-(2-ethyl-3-((4-(4-fluorophenyl)-5-(hydroxymethyl)thiazol-2-yl)(methyl)amino)imidazo[1,2-b]pyridazin-6-yl)pyrrolidin-3-ol] | > 1000 nM
12 | CCc1nc2ccc(N3CCC4(CCOCC4)C3)nn2c1N(C)c1nc(-c2ccc(F)cc2)c(CO)s1 [Cpd 186, (2-((2-ethyl-6-(8-oxa-2-azaspiro[4.5]decan-2-yl)[1,2-b]pyridazin-3-yl)(methyl)amino)-4-(4-fluorophenyl)thiazol-5-yl)methanol] | 100 to 500 nM
13 | CCc1nc2ccc(N3CC(NC(=O)OC(C)(C)C)C3)nn2c1N(C)c1nc(-c2ccc(F)cc2)c(C#N)s1 [Cpd 187, [1-(3-{[5-Cyano-4-(4-fluoro-phenyl)-thiazol-2-yl]-methyl-amino}-2-ethyl-imidazo[1,2-b]pyridazin-6-yl)-azetidin-3-yl]-carbamic acid tert-butyl ester] | 100 to 500 nM
14 | CCc1nc2ccc(N3CC(N)C3)nn2c1N(C)c1nc(-c2ccc(F)cc2)c(C#N)s1 [Cpd 188, 2-((6-(3-aminoazetidin-1-yl)-2-ethylimidazo[1,2-b]pyridazin-3-yl)(methyl)amino)-4-(4-fluorophenyl) thiazole-5-carbonitrile] | 0.01 to 100 nM
15 | CCc1nc2ccc(N3CC(NCC(=O)N4CC(O)C4)C3)nn2c1N(C)c1nc(-c2ccc(F)cc2)c(C#N)s1 [Cpd 189, 2-((2-ethyl-6-(3-(2-(3-hydroxyazetidin-1-yl)-2-oxoethylamino)azetidin-1-yl)imidazo[1,2-b]pyridazin-3-yl)(methyl)amino)-4-(4-fluorophenyl) thiazole-5-carbonitrile] | 0.01 to 100 nM
16 | CCc1nc2ccc(N3CC(NS(C)(=O)=O)C3)nn2c1N(C)c1nc(-c2ccc(F)cc2)c(C#N)s1 [Cpd 190, N-(1-(3-((5-cyano-4-(4-fluorophenyl)thiazol-2-yl)(methyl)amino)-2-ethylimidazo[1,2-b]pyridazin-6-yl)azetidin-3-yl)methane-sulfonamide] | 0.01 to 100 nM
17 | CCc1nc2ccc(N3CC(C(=O)N4CCOCC4)C3)nn2c1N(C)c1nc(-c2ccc(F)cc2)c(C#N)s1 [Cpd 191, 2-((2-ethyl-6-(3-(morpholine-4-carbonyl)azetidin-1-yl)imidazo[1,2-b]pyridazin-3-yl)(methyl)amino)-4-(4-fluorophenyl) thiazole-5-carbonitrile] | 100 to 500 nM
18 | CCc1nc2ccc(N3CC(C(=O)N4CCC(O)C4)C3)nn2c1N(C)c1nc(-c2ccc(F)cc2)c(C#N)s1 (centres unmarked) [Cpd 192, 2-((2-ethyl-6-(3-(3-hydroxy-pyrrolidine-1-carbonyl)azetidin-1-yl)imidazo[1,2-b]pyridazin-3-yl)(methyl)amino)-4-(4-fluorophenyl) thiazole-5-carbonitrile] | 100 to 500 nM
19 | CCc1nc2ccc(C3CCN(CC(=O)N(C)C)CC3)nn2c1N(C)c1nc(-c2ccc(F)cc2)c(CO)s1 [Cpd 203, 2-(4-(2-ethyl-3-((4-(4-fluorophenyl)-5-(hydroxymethyl)thiazol-2-yl)(methyl)amino)imidazo[1,2-b]pyridazin-6-yl)piperidin-1-yl)-N,N-dimethylacetamide] | 500 to 1000 nM
20 | CCc1nc2ccc(C3=CCN(S(C)(=O)=O)CC3)nn2c1N(C)c1nc(-c2ccc(F)cc2C#N)cs1 [Cpd 204, 2-(2-((2-ethyl-6-(1-(methylsulfonyl)-1,2,3,6-tetrahydropyridin-4-yl)imidazo[1,2-b]pyridazin-3-yl)(methyl)amino)thiazol-4-yl)-5-fluorobenzonitrile] | 100 to 500 nM
21 | CCc1nc2ccc(C3CCN(CC(=O)N4CC(O)C4)CC3)nn2c1N(C)c1nc(-c2ccc(F)cc2C#N)cs1 [Cpd 207, 2-(2-((2-ethyl-6-(1-(2-(3-hydroxyazetidin-1-yl)-2-oxoethyl)piperidin-4-yl)imidazo[1,2-b]pyridazin-3-yl)(methyl)amino)thiazol-4-yl)-5-fluorobenzonitrile] | 100 to 500 nM
22 | CCc1nc2ccc(C3CCN(CC(=O)N(C)C)CC3)nn2c1N(C)c1nc(-c2ccc(F)cc2C#N)cs1 [Cpd 208, 2-(4-(3-((4-(2-cyano-4-fluorophenyl)thiazol-2-yl)(methyl)amino)-2-ethylimidazo[1,2-b]pyridazin-6-yl)piperidin-1-yl)-N,N-dimethylacetamide] | 100 to 500 nM
23 | CCc1nc2ccc(C3CCN(CC(=O)NC)CC3)nn2c1N(C)c1nc(-c2ccc(F)cc2C#N)cs1 [Cpd 209, 2-(4-(3-((4-(2-cyano-4-fluorophenyl)thiazol-2-yl)(methyl)amino)-2-ethylimidazo[1,2-b]pyridazin-6-yl)piperidin-1-yl)-N-methylacetamide] | 100 to 500 nM
24 | CCc1nc2ccc(C3CCN(CC(=O)N4CC(O)C4)CC3)nn2c1N(C)c1nc(-c2ccc(F)cc2C#N)c(C)s1 [Cpd 210, 2-(2-((2-ethyl-6-(1-(2-(3-hydroxyazetidin-1-yl)-2-oxoethyl)piperidin-4-yl)imidazo[1,2-b]pyridazin-3-yl)(methyl)amino)-5-methylthiazol-4-yl)-5-fluorobenzonitrile] | > 1000 nM
25 | CCc1nc2ccc(C3CCN(CC(=O)NC)CC3)nn2c1N(C)c1nc(-c2ccc(F)cc2C#N)c(C)s1 [Cpd 211, 2-(4-(3-((4-(2-cyano-4-fluorophenyl)-5-methylthiazol-2-yl)(methyl)amino)-2-ethylimidazo[1,2-b]pyridazin-6-yl)piperidin-l-yl)-N-methylacetamide] | > 1000 nM
26 | CCc1nc2ccc(C3CCN(CC(=O)N4CC(O)C4)CC3)nn2c1N(C)c1nc(-c2ccc(F)cc2C#N)ns1 [Cpd 220, 2-(5-((2-ethyl-6-(1-(2-(3-hydroxyazetidin-1-yl)-2-oxoethyl)piperidin-4-yl)imidazo[1,2-b]pyridazin-3-yl)(methyl)amino)-1,2,4-thiadiazol-3-yl)-5-fluorobenzonitrile] | 100 to 500 nM
